Data from ChEMBL document CHEMBL1201862, “PubChem BioAssay data set” (2004).
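Method: 48-hour compound exposure of cells in 96-well plates, five concentrations, linear interpolation of endpoints. GI50 is the concentration that inhibits growth by half.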 Activity calls are given as the source filed them. Rule as the data show it: active = GI50 up to about 1.1 µM and inactive = higher. Starred links: 1 amine or outer side, 2 acyl side, 3 side chain; linkers in the order of their positions; H or OH if unused. Non-standard residues stand in square brackets, D forms with d. Residues, ends and D or L forms follow the SMILES beside them. X4 = C[C@H](N[*:1])C(=O)C(C)(C)C(=O)[*:2]; Hmpa(2S,3S) = CC[C@H](C)[C@H](O)C(=O)O; NMeY = CN[C@@H](Cc1ccc(O)cc1)C(=O)O; NMeL = CN[C@@H](CC(C)C)C(=O)O; NMeV = CN[C@H](C(=O)O)C(C)C; βAla = NCCC(=O)O

Tests used:
Experiment in all cases: NCI-60 cell line screen, 48 h
RXF 393 = system: RXF 393
SF-295 = system: SF-295
NCI-H23 = system: NCI-H23
NCI-H226 = system: NCI-H226
HOP-92 = system: HOP-92
HL-60 = system: HL-60
RPMI-8226 = system: RPMI-8226
SK-OV-3 = system: SK-OV-3
NCI-H460 = system: NCI-H460
PC-3 = system: PC-3
SN12C = system: SN12C
MDA-MB-435 = system: MDA-MB-435
KM12 = system: KM12
U-251 = system: U-251
HCT-15 = system: HCT-15
HT-29 = system: HT-29
EKVX = system: EKVX
UACC-62 = system: UACC-62
ACHN = system: ACHN
SK-MEL-2 = system: SK-MEL-2

Compound	GI50 (RXF 393)	GI50 (SF-295)	GI50 (NCI-H23)	GI50 (NCI-H226)	GI50 (HOP-92)	GI50 (HL-60)	GI50 (RPMI-8226)	GI50 (SK-OV-3)	GI50 (NCI-H460)	GI50 (PC-3)	GI50 (SN12C)	GI50 (MDA-MB-435)	GI50 (KM12)	GI50 (U-251)	GI50 (HCT-15) [µM]	GI50 (HT-29)	GI50 (EKVX)	GI50 (UACC-62)	GI50 (ACHN)	GI50 (SK-MEL-2)
C=C(Cl)[C@](Cl)(CBr)CC[C@@H](Br)C(C)(C)Cl [HALOMON]	0.121 µM (active)	1.02 µM (active)	11.4 µM (inactive)	17 µM (inactive)	0.378 µM (active)	0.421 µM (active)	0.0607 µM (active)	9.57 µM (inactive)	0.955 µM (active)	0.319 µM (active)	3.23 µM (inactive)	1.59 µM (inactive)	0.927 µM (active)	0.181 µM (active)	2.01	0.783 µM (active)	3.64 µM (inactive)	3.19 µM (inactive)	1.01 µM (active)	
Cc1ccccc1-n1c(=O)nc2n(-c3ccc(C(C)(C)C)cc3)c3ccccc3cc-2c1=O	21.8 µM (inactive)	20.4 µM (inactive)	21.7 µM (inactive)	18.8 µM (inactive)	21.4 µM (inactive)	20.3 µM (inactive)	24.2 µM (inactive)		15.3 µM (inactive)	19.8 µM (inactive)	17.7 µM (inactive)	11.3 µM (inactive)	15.3 µM (inactive)	15 µM (inactive)	16.6	16.5 µM (inactive)	22.4 µM (inactive)	19.2 µM (inactive)	32.5 µM (inactive)	16.7 µM (inactive)
CCOC(=O)C(NC(=O)c1cccc(Cl)c1)(Nc1cccc(C)c1)C(F)(F)F (stereo unspecified)	13 µM (inactive)			14 µM (inactive)	15 µM (inactive)	38.5 µM (inactive)	18.3 µM (inactive)		20.8 µM (inactive)	16.5 µM (inactive)	21.2 µM (inactive)	19.6 µM (inactive)	13.6 µM (inactive)	23.8 µM (inactive)	16.7	13.3 µM (inactive)	18.7 µM (inactive)	14.5 µM (inactive)	15.9 µM (inactive)	16.3 µM (inactive)
CCOc1cccc(/C=N/N=C2\C(=O)Nc3c(Cl)cc(Cl)cc32)c1O	> 100 µM (inactive)	62.5 µM (inactive)	50.1 µM (inactive)	> 100 µM (inactive)	75.7 µM (inactive)	33.4 µM (inactive)		> 100 µM (inactive)	37 µM (inactive)	44.2 µM (inactive)	73.6 µM (inactive)	44.8 µM (inactive)	> 100 µM (inactive)	46.5 µM (inactive)	54.6	> 100 µM (inactive)	5.97 µM (inactive)	58.2 µM (inactive)	> 100 µM (inactive)	83.8 µM (inactive)
COC(=O)C1c2cc3c(cc2C(OC2OC(C)C(OC)C(C)(OC)C2OC)CC1(C)O)C(=O)c1c(O)cc2c(c1C3=O)OC1OC2(C)C(O)C([N+](C)(C)[O-])C1O (stereo unspecified)	0.179 µM (active)	0.269 µM (active)	0.105 µM (active)		0.144 µM (active)	0.286 µM (active)	0.122 µM (active)	1.64 µM (inactive)	0.0644 µM (active)	0.355 µM (active)	0.102 µM (active)	0.158 µM (active)	0.154 µM (active)	0.0386 µM (active)	2.78	0.173 µM (active)	0.658 µM (active)	0.0509 µM (active)	0.309 µM (active)	0.137 µM (active)
CC[C@H](C)[C@@H]1OC(=O)CCNC(=O)[C@@H](C)NC(=O)C(C)(C)C(=O)[C@H](C)NC(=O)[C@H](Cc2ccc(OC)cc2)N(C)C(=O)[C@H](C(C)C)N(C)C(=O)CNC(=O)[C@H](CC(C)C)N(C)C(=O)CNC1=O (cyclo(G[NMeL]G[NMeV][NMeY](Me)[X4][dA][βAla][Hmpa(2S,3S)]))	0.733 µM (active)	0.306 µM (active)	0.262 µM (active)	5.92 µM (inactive)	0.665 µM (active)		0.0726 µM (active)	0.294 µM (active)	0.0615 µM (active)	0.31 µM (active)	0.367 µM (active)	0.953 µM (active)		0.0855 µM (active)	1.63	1.84 µM (inactive)	3.24 µM (inactive)	0.294 µM (active)	3.1 µM (inactive)	0.222 µM (active)
CC[C@@H]1/C=C/C=C/C[C@H](C)[C@@H](O)[C@](C)(O)C(=O)[C@H](C)[C@@H](O)[C@H](C)C(=O)[C@H](C)[C@@H](O)[C@H](C)/C=C/C(=O)O[C@H]2[C@@H](C)[C@@H](CC1)O[C@]1(O[C@H](CC(C)O)[C@H](C)CC1=O)[C@@H]2C (stereo partly specified)	3.6 µM (inactive)	< 0.0025 µM (active)	< 0.0025 µM (active)		4.23 µM (inactive)	0.107 µM (active)	< 0.0025 µM (active)	5.66 µM (inactive)	1.04 µM (active)	< 0.0025 µM (active)	3.74 µM (inactive)	3.26 µM (inactive)	3.81 µM (inactive)	< 0.0025 µM (active)	3.28	2.92 µM (inactive)	< 0.0025 µM (active)	3.22 µM (inactive)	2.65 µM (inactive)	3.89 µM (inactive)
N#Cc1c(N)nc2c(/N=N\c3ccccc3)c(N)nn2c1Nc1ccccc1	13.1 µM (inactive)	16.8 µM (inactive)	4.55 µM (inactive)	25.7 µM (inactive)	14.6 µM (inactive)	2.52 µM (inactive)	3.56 µM (inactive)		10.1 µM (inactive)	5.69 µM (inactive)	7.69 µM (inactive)	16.4 µM (inactive)	4.75 µM (inactive)	10.2 µM (inactive)	23.6	12.4 µM (inactive)	5.37 µM (inactive)		20.4 µM (inactive)	7.91 µM (inactive)
C1=C2C3=[N+](CCCC3)CC2Cc2ccsc21 (stereo unspecified)	65 µM (inactive)	55.3 µM (inactive)	> 100 µM (inactive)	> 100 µM (inactive)	69.5 µM (inactive)	76.2 µM (inactive)		> 100 µM (inactive)	38 µM (inactive)	45.1 µM (inactive)	> 100 µM (inactive)	> 100 µM (inactive)	42.4 µM (inactive)	28.7 µM (inactive)	> 100	> 100 µM (inactive)	52.6 µM (inactive)	> 100 µM (inactive)	> 100 µM (inactive)	> 100 µM (inactive)
CC(=O)/C(=C\NC(N)=S)C(=O)Nc1ccccc1C	> 100 µM (inactive)	> 100 µM (inactive)	> 100 µM (inactive)	> 100 µM (inactive)	> 100 µM (inactive)		> 100 µM (inactive)	> 100 µM (inactive)	> 100 µM (inactive)	> 100 µM (inactive)	> 100 µM (inactive)	> 100 µM (inactive)	> 100 µM (inactive)	> 100 µM (inactive)	> 100	> 100 µM (inactive)	> 100 µM (inactive)	> 100 µM (inactive)	> 100 µM (inactive)	> 100 µM (inactive)
O=P1(c2ccccc2)c2ccccc2CCc2ccccc21	44.4 µM (inactive)	45.5 µM (inactive)	> 100 µM (inactive)	> 100 µM (inactive)	35.6 µM (inactive)	16.6 µM (inactive)	50.6 µM (inactive)	58.2 µM (inactive)		50.5 µM (inactive)	81.1 µM (inactive)	57.7 µM (inactive)	56.1 µM (inactive)		68.9		66.4 µM (inactive)	78.7 µM (inactive)		49.3 µM (inactive)
O=C(O)CSc1cc(-c2ccccc2)nc2ccccc12	27.4 µM (inactive)	45.5 µM (inactive)	44.7 µM (inactive)		72.3 µM (inactive)	22.2 µM (inactive)			38.7 µM (inactive)	35.2 µM (inactive)	36.6 µM (inactive)	13.3 µM (inactive)	30.5 µM (inactive)	32.5 µM (inactive)	43.6	36.2 µM (inactive)	> 100 µM (inactive)	48.3 µM (inactive)	71.1 µM (inactive)	26.5 µM (inactive)
COc1cc2ccc1OCc1cccc(n1)COc1ccc(cc1OC)/C=N\c1ccc(cc1)-c1ccc(cc1)/N=C\2	71.6 µM (inactive)	> 100 µM (inactive)	> 100 µM (inactive)	> 100 µM (inactive)	> 100 µM (inactive)	> 100 µM (inactive)		> 100 µM (inactive)	> 100 µM (inactive)	> 100 µM (inactive)	> 100 µM (inactive)	> 100 µM (inactive)	> 100 µM (inactive)	> 100 µM (inactive)	> 100	> 100 µM (inactive)	> 100 µM (inactive)	> 100 µM (inactive)	> 100 µM (inactive)	> 100 µM (inactive)
COC(=O)c1cc2c(c3c1CC(Cc1ccccc1)C3=O)CCC2 (stereo unspecified)	90.2 µM (inactive)	> 100 µM (inactive)	64.4 µM (inactive)	> 100 µM (inactive)	25.1 µM (inactive)	> 100 µM (inactive)	59.8 µM (inactive)	80.5 µM (inactive)	71.1 µM (inactive)	> 100 µM (inactive)	78.2 µM (inactive)	52.6 µM (inactive)	18.4 µM (inactive)	62.8 µM (inactive)	35	74.1 µM (inactive)	> 100 µM (inactive)	32.7 µM (inactive)	84.3 µM (inactive)	
Cc1c2c(OCC3CCCCO3)nn(C)c(=O)c2c(C)n1-c1ccccc1 (stereo unspecified)	16 µM (inactive)	16.5 µM (inactive)	20 µM (inactive)	23.4 µM (inactive)	18 µM (inactive)		31.3 µM (inactive)	18.3 µM (inactive)	14.7 µM (inactive)	19.7 µM (inactive)	19.4 µM (inactive)	18.3 µM (inactive)	18.6 µM (inactive)	17.4 µM (inactive)	17.1	31.6 µM (inactive)	17.1 µM (inactive)	16.4 µM (inactive)	16.5 µM (inactive)	24.1 µM (inactive)
